Source: US12202818B2, “Compounds and methods for CD73 modulation and indications therefor” (Opna Bio SA, priority 2020, dated 2025)

Tests used:
[1] = molecular target: T1, Human CD73 (amino acid residues 27-549) (Homo sapiens, UniProt P21589); assay: CD73 enzymatic assay (luciferase-based indirect assay, CellTiter-Glo); format: biochemical; conditions: 0.4 nM CD73, 150 μM AMP, 1 hour at room temperature
T1 construct: Human CD73 (amino acid residues 27-549); His tag (N); made in house; host or cells: E. coli
T1 sequence (P21589 27-549): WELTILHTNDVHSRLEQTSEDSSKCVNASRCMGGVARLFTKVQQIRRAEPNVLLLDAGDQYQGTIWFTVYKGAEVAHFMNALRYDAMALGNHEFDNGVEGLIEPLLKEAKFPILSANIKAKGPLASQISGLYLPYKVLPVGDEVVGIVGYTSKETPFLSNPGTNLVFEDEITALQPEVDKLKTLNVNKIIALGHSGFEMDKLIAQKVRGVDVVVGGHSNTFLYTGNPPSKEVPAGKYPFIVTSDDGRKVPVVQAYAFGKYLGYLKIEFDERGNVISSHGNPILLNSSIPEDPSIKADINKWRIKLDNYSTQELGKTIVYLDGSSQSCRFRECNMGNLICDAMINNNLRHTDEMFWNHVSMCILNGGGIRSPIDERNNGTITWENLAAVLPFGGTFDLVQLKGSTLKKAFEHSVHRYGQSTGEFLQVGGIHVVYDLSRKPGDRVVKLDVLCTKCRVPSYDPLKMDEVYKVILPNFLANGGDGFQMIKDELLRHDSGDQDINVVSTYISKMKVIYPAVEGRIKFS
Protocol: CD73 enzymatic activity was measured in a luciferase-based indirect assay using CellTiter-Glo® system from Promega. The luciferase reaction in the presence of ATP is inhibited by AMP, a primary substrate of CD73. Addition of CD73 enzyme to the reaction converts AMP to adenosine, and release the inhibition, producing a luminescent signal. Inhibition of CD73 leads to the decrease of this luminescent signal.
Human CD73 (amino acid residues 27-549) with N-Terminal His tag was purified in E. coli. All the assay components were prepared in 50 mM HEPEs buffer (pH 7.4) with 0.01% Tween-20. The CD73 enzymatic assay was performed using 0.4 nM CD73 and 150 μM AMP. 9.5 μL of CD73 protein and 9.5 μL of AMP were added to the wells of a 384 well plate containing lpL of various concentrations of test compound or DMSO vehicle and incubated for 1 hour at room temperature. 16 wells containing CD73, AMP and 5% DMSO served as high control. 16 wells containing AMP and 5% DMSO served as low control. Enzymatic reaction was stopped and AMP level was measured indirectly by adding 5 μL of CellTiter-Glo® 2.0 reagent and 5 μL of ATP with a final concentration of 1 μM. Following incubation of the plate at room temperature for 30 minutes, luminescent signal was read on a Tecan plate reader. The percentage inhibition at individual concentrations relative to high and low controls was calculated. The data were analyzed by using nonlinear regression to generate IC50 values.

human CD73 = molecular target: T2, human CD73 (Homo sapiens, UniProt P21589); assay: Inhibitor activity against CD73 in cell based assay (CD73 expressing CHO-K1 cells); conditions: CHO-K1 cells expressing human CD73, 150 μM AMP, 4 hours of incubation; read-out: CHO-K1 CELL_VARIANT: CD73 IC50
T2 construct: expressed in transfected cells
T2 sequence (P21589 27-549): T1 sequence (P21589 27-549)
Protocol: Determine Inhibitor Activity Against CD73 in Cell Based Assay
CD73 expressing CHO-K1 cell clones were generated upon stable transfection of a plasmid expressing human CD73 under the control of CMV promoter. Cells were selected in Ham's F-12K (Kaighn's) media supplemented with 10% fetal bovine serum and 1 mg/ml G418 at 37° C. in a humidified incubator supplied with 5% CO2. The assays were performed as follows. Cells were seeded in a 96 well plate in 50 μL of culture media at a density of 1×10^4 per well. Compound at a maximal concentration of 5 mM was serially diluted 1:3 in DMSO for a total of 8 point titration. A 2 μL aliquot of each dilution point was added to […] culture media and 25 µL was added to each well, providing 10 μM compound at the maximum concentration point. AMP was diluted in culture media and 25 μL was added to each well with a final concentration of 150 μM. 4 wells containing 0.2% DMSO treated cells and AMP served as high controls and 4 wells containing media only with 0.2% DMSO and AMP served as low controls. After 4 hours of incubation, 20 μL of the supernatant was transferred to a 384 well plate. AMP level in supernatant was measured indirectly by adding 5 μL of CellTiter-Glo® 2.0 reagent and 5 μL of ATP with a final concentration of 1 μM. Following incubation of plate at room temperature for 30 minutes, luminescent signal was read on a Tecan plate reader. The percentage inhibition at individual concentrations relative to high and low controls was calculated. The data were analyzed by using nonlinear regression to generate ICso values.

| Structure (SMILES) | IC50 [1] [µM] | IC50 (human CD73) [µM] |
| --- | --- | --- |
| O=c1c(Cl)c(N2CC[C@@H](Oc3cc(C4CCNCC4)ccn3)C2)cnn1CCO [P-0023, (R)-4-chloro-2-(2-hydroxyethyl)-5-(3-((4-(piperidin-4-yl)pyridin-2-yl)oxy)pyrrolidin-1-yl)pyridazin-3(2H)-one] | 0.001 to 10 | 0.001 to 10 |
| O=c1[nH]ncc(N2CC[C@@H](Oc3cc(N4CCC5(CC4)CC(F)(F)C5)ccn3)C2)c1Cl [P-0024, (R)-4-chloro-5-(3-((4-(2,2-difluoro-7-azaspiro[3.5]nonan-7-yl)pyridin-2-yl)oxy)pyrrolidin-1-yl)pyridazin-3(2H)-one] | 0.001 to 10 | 0.001 to 10 |
| O=C(NC1CCOCC1)c1ccnc(O[C@@H]2CCN(c3cn[nH]c(=O)c3Cl)C2)c1 [P-0025, (R)-2-((1-(5-chloro-6-oxo-1,6-dihydropyridazin-4-yl)pyrrolidin-3-yl)oxy)-N-(tetrahydro-2H-pyran-4-yl)isonicotinamide] | 0.001 to 10 | 0.001 to 10 |
| Cc1nn(C2CCC2)c(C)c1-c1ccnc(O[C@@H]2CCN(c3cn[nH]c(=O)c3Cl)C2)c1 [P-0026, (R)-4-chloro-5-(3-((4-(1-cyclobutyl-3,5-dimethyl-1H-pyrazol-4-yl)pyridin-2-yl)oxy)pyrrolidin-1-yl)pyridazin-3(2H)-one] | 0.001 to 10 | 0.001 to 10 |
| Cc1nn(C(C)C)c(C)c1-c1ccnc(O[C@@H]2CCN(c3cn[nH]c(=O)c3Cl)C2)c1 [P-0027, (R)-4-chloro-5-(3-((4-(1-isopropyl-3,5-dimethyl-1H-pyrazol-4-yl)pyridin-2-yl)oxy)pyrrolidin-1-yl)pyridazin-3(2H)-one] | 0.001 to 10 | 0.001 to 10 |
| COC(=O)C1C2CCC1CN(c1ccnc(O[C@@H]3CCN(c4cn[nH]c(=O)c4Cl)C3)c1)C2 (stereo partly drawn) [P-0028, methyl 3-(2-(((R)-1-(5-chloro-6-oxo-1,6-dihydropyridazin-4-yl)pyrrolidin-3-yl)oxy)pyridin-4-yl)-3-azabicyclo[3.2.1]octane-8-carboxylate] | 0.001 to 10 | 0.001 to 10 |
| CS(=O)(=O)N1CC=C(c2ccnc(O[C@@H]3CCN(c4cn[nH]c(=O)c4Cl)C3)c2)CC1 [P-0029, (R)-4-chloro-5-(3-((1′-(methylsulfonyl)-1′,2′,3′,6′-tetrahydro-[4,4′-bipyridin]-2-yl)oxy)pyrrolidin-1-yl)pyridazin-3(2H)-one] | 0.001 to 10 | 10 to 100 |
| N#CCC1CCN(c2ccnc(O[C@@H]3CCN(c4cn[nH]c(=O)c4Cl)C3)c2)CC1 [P-0030, (R)-2-(1-(2-((1-(5-chloro-6-oxo-1,6-dihydropyridazin-4-yl)pyrrolidin-3-yl)oxy)pyridin-4-yl)piperidin-4-yl)acetonitrile] | 0.001 to 10 | 0.001 to 10 |
| O=c1[nH]ncc(N2CC[C@@H](Oc3cc(C4CCC(O)CC4)ccn3)C2)c1Cl (stereo partly drawn) [P-0031, (R)-4-chloro-5-(3-((4-(4-hydroxycyclohexyl)pyridin-2-yl)oxy)pyrrolidin-1-yl)pyridazin-3(2H)-one] | 0.001 to 10 | 0.001 to 10 |
| O=c1[nH]ncc(N2CC[C@@H](Oc3cc(C4=CCNC4)ccn3)C2)c1Cl [P-0032, (R)-4-chloro-5-(3-((4-(2,5-dihydro-1H-pyrrol-3-yl)pyridin-2-yl)oxy)pyrrolidin-1-yl)pyridazin-3(2H)-one] | 0.001 to 10 | 0.001 to 10 |
| Cc1nn(C2(CC#N)COC2)c(C)c1-c1ccnc(O[C@@H]2CCN(c3cn[nH]c(=O)c3Cl)C2)c1 [P-0033, (R)-2-(3-(4-(2-((1-(5-chloro-6-oxo-1,6-dihydropyridazin-4-yl)pyrrolidin-3-yl)oxy)pyridin-4-yl)-3,5-dimethyl-1H-pyrazol-1-yl)oxetan-3-yl)acetonitrile] | 0.001 to 10 | 0.001 to 10 |

Other lines, results leading:

| IC50 [1] [µM] | IC50 (human CD73) [µM] | Structure (SMILES) |
| --- | --- | --- |
| 0.001 to 10 | 0.001 to 10 | Cc1nn(CC23CC(C#N)(C2)C3)c(C)c1-c1ccnc(O[C@@H]2CCN(c3cnn(CCO)c(=O)c3Cl)C2)c1 [P-0034, (R)-3-((4-(2-((1-(5-chloro-1-(2-hydroxyethyl)-6-oxo-1,6-dihydropyridazin-4-yl)pyrrolidin-3-yl)oxy)pyridin-4-yl)-3,5-dimethyl-1H-pyrazol-1-yl)methyl)bicyclo[1.1.1]pentane-1-carbonitrile] |
| 0.001 to 10 | 0.001 to 10 | Cc1nn(C2(CC(N)=O)CCC2)c(C)c1-c1ccnc(O[C@@H]2CCN(c3cn[nH]c(=O)c3Cl)C2)c1 [P-0035, (R)-2-(1-(4-(2-((1-(5-chloro-6-oxo-1,6-dihydropyridazin-4-yl)pyrrolidin-3-yl)oxy)pyridin-4-yl)-3,5-dimethyl-1H-pyrazol-1-yl)cyclobutyl)acetamide] |
| 0.001 to 10 | 0.001 to 10 | Cc1nn(C2(CC#N)CCC2)c(C)c1-c1ccnc(O[C@@H]2CCN(c3cn[nH]c(=O)c3Cl)C2)c1 [P-0036, (R)-2-(1-(4-(2-((1-(5-chloro-6-oxo-1,6-dihydropyridazin-4-yl)pyrrolidin-3-yl)oxy)pyridin-4-yl)-3,5-dimethyl-1H-pyrazol-1-yl)cyclobutyl)acetonitrile] |
| 0.001 to 10 | 0.001 to 10 | Cc1nn(CC(C)(C)O)c(C)c1-c1cc(O[C@@H]2CCN(c3cn[nH]c(=O)c3Cl)C2)ncn1 [P-0037, (R)-4-chloro-5-(3-((6-(1-(2-hydroxy-2-methylpropyl)-3,5-dimethyl-1H-pyrazol-4-yl)pyrimidin-4-yl)oxy)pyrrolidin-1-yl)pyridazin-3(2H)-one] |
| 0.001 to 10 | 0.001 to 10 | Cc1nn(CC(C)(C)O)c(C)c1-c1ccnc(O[C@@H]2CCN(c3cn[nH]c(=O)c3Cl)C2)c1 [P-0038, (R)-4-chloro-5-(3-((4-(1-(2-hydroxy-2-methylpropyl)-3,5-dimethyl-1H-pyrazol-4-yl)pyridin-2-yl)oxy)pyrrolidin-1-yl)pyridazin-3(2H)-one] |
| 0.001 to 10 | 0.001 to 10 | Cc1nn(CC(O)C(F)(F)F)c(C)c1-c1ccnc(O[C@@H]2CCN(c3cn[nH]c(=O)c3Cl)C2)c1 (stereo partly drawn) [P-0039, 4-chloro-5-((3R)-3-((4-(3,5-dimethyl-1-(3,3,3-trifluoro-2-hydroxypropyl)-1H-pyrazol-4-yl)pyridin-2-yl)oxy)pyrrolidin-1-yl)pyridazin-3(2H)-one] |
| 0.001 to 10 | 0.001 to 10 | Cc1nn(CC(=O)NC2CC2)c(C)c1-c1ccnc(O[C@@H]2CCN(c3cn[nH]c(=O)c3Cl)C2)c1 [P-0040, (R)-2-(4-(2-((1-(5-chloro-6-oxo-1,6-dihydropyridazin-4-yl)pyrrolidin-3-yl)oxy)pyridin-4-yl)-3,5-dimethyl-1H-pyrazol-1-yl)-N-cyclopropylacetamide] |
| 0.001 to 10 | 0.001 to 10 | CNC(=O)Cn1nc(C)c(-c2ccnc(O[C@@H]3CCN(c4cn[nH]c(=O)c4Cl)C3)c2)c1C [P-0041, (R)-2-(4-(2-((1-(5-chloro-6-oxo-1,6-dihydropyridazin-4-yl)pyrrolidin-3-yl)oxy)pyridin-4-yl)-3,5-dimethyl-1H-pyrazol-1-yl)-N-methylacetamide] |
